Structures are written as SMILES. Several values for one entry are separate records, joined by “and”; a condition that tells them apart may be missing. Equal entries are not always repeated. A value given as a limit tells only on which side of the number the result lay.

The target of test [1] is T1, 5-hydroxytryptamine receptor 1A (Rattus norvegicus, UniProt P19327).
T1 sequence (P19327 whole entry): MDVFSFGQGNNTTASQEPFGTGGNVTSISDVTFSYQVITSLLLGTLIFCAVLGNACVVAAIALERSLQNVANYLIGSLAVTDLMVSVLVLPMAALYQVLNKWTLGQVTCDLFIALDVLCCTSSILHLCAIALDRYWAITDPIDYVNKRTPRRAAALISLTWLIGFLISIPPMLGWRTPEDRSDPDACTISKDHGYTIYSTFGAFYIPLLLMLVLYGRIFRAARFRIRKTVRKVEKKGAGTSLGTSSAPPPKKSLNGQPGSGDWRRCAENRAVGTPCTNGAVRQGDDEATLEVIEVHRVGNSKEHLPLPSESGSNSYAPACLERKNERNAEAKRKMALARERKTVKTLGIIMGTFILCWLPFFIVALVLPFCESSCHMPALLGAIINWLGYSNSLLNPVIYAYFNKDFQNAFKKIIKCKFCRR
In words: biochemical.
Description: Binding affinity to 5-HT1A receptor in rat hippocampus by [3H]8-OH-DPAT displacement.

For test [2], the target named is T2, D(4) dopamine receptor (Homo sapiens, UniProt P21917).
T2 sequence (P21917 whole entry): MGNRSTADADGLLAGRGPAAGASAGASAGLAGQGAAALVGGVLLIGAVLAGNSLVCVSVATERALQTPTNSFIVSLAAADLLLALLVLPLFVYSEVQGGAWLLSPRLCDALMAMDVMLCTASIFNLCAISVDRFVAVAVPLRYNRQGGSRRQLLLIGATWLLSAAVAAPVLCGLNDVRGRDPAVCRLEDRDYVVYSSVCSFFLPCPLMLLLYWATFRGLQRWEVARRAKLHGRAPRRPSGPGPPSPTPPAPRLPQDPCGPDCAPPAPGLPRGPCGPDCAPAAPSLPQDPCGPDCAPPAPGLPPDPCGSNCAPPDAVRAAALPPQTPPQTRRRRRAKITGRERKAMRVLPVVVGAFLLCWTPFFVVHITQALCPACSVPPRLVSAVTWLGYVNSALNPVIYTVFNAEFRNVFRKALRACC
Briefly: biochemical.
Description: Binding affinity to cloned human Dopamine receptor D4 expressed in CHO cells using [3H]spiperone

Test [3] has as its target T3, D(3) dopamine receptor (Homo sapiens, UniProt P35462). In words: biochemical.
Description: Binding affinity to cloned human Dopamine receptor D3 expressed in CHO cells by [3H]spiperone displacement.
Test [4] concerns the target T4, D(2) dopamine receptor (Homo sapiens, UniProt P14416). In words: biochemical.
Description: Binding affinity to cloned human Dopamine receptor D2 expressed in A9L cells by [3H]spiperone displacement.
Test [5] addresses T5, D(4) dopamine receptor (Homo sapiens) (UniProt P21917).
T5 sequence (whole entry): T2 sequence (P21917 whole entry)
Briefly: Binding affinity to cloned human dopamine receptor D4 expressed in CHO cells using [3H]spiperone at 100 nM concentration. Format: cell-based.

Test [6] addresses T4, D(2) dopamine receptor. Briefly: Binding affinity to cloned human Dopamine receptor D2 expressed in A9L cells using [3H]spiperone at 100 nM concentration. Type of test: cell-based.
In test [7] the target is T3, D(3) dopamine receptor. In words: Binding affinity to cloned human Dopamine receptor D3 expressed in CHO cells using [3H]spiperone at 100 nM concentration. Format: cell-based.

T3 sequence (P35462 whole entry): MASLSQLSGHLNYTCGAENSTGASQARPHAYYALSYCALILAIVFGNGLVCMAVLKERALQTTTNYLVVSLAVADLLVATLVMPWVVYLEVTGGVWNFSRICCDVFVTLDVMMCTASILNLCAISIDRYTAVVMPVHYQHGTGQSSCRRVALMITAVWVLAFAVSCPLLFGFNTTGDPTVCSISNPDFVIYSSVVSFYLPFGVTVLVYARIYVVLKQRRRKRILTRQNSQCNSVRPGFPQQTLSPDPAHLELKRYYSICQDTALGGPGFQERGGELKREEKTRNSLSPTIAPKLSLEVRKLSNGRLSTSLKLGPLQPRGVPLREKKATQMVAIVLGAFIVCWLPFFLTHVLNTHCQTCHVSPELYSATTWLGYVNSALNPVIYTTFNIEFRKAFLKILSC
T4 sequence (P14416 whole entry): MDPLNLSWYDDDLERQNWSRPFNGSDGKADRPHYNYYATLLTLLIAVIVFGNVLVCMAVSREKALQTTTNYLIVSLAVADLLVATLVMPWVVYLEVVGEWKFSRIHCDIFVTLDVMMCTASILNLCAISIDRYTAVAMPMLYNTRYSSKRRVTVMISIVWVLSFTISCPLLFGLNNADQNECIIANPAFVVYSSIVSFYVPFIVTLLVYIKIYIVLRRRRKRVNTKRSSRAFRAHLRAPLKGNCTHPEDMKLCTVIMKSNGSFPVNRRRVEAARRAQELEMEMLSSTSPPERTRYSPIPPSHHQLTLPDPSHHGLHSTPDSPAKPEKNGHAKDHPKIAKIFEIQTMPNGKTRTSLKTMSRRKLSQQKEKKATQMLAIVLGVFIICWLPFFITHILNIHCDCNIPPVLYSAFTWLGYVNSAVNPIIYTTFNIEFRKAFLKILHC

As for `COc1ccccc1-c1cccc(CN2CCN(c3ncccn3)CC2)c1`, the IC50 was determined as 300 nM in test [1], 16 nM in test [2], 710 nM in test [3] and 360 nM in test [4].
Turning to `c1cnc(N2CCN(Cc3cccc4c3-c3ccccc3C4)CC2)nc1`, the IC50 in test [1] is above 100 nM; in test [2], 4800 nM; in test [3] it was 4000 nM; in test [4], 2300 nM.
Turning to `COc1ccc(-c2cccc(CN3CCN(c4ncccn4)CC3)c2)cc1`, the half-inhibitory concentration (IC50) in test [1] is 2000 nM; in test [2], 57 nM; in test [3], 72 nM; in test [4], 50 nM.
Regarding `Fc1ccc(-c2cncc(CN3CCN(c4ccc(F)cc4)CC3)c2)cc1`, the IC50 in test [1] worked out at 400 nM; in test [2], 8 nM; in test [3] it was 200 nM; in test [4], 70 nM.
As to `Fc1ccc(-c2cncc(CN3CCN(c4ccccn4)CC3)c2)cc1`, the IC50 is 10 nM in test [1], 7 nM in test [2], 300 nM in test [3] and 60 nM in test [4].
Take `Fc1ccc(-c2cncc(CN3CCN(c4ncccn4)CC3)c2)cc1`: the IC50 in test [1] is 100 nM; in test [2], 9 nM and 7 nM; in test [3], 150 nM; in test [4], 120 nM.
In the case of `c1cnc(N2CCN(CC3c4ccccc4-c4ccccc43)CC2)nc1`, the IC50 in test [1] was above 100 nM. Further, the values for the inhibition in test [5], in test [6] and in test [7] were 99%, 100% and 95%, respectively.
The like results for `c1cnc(N2CCN(Cc3ccc4c(c3)Cc3ccccc3-4)CC2)nc1` were, in that order, above 100 nM, 87%, 89% and 91%.
As to `Fc1ccc(-c2cncc(CN3CCN(c4cnccn4)CC3)c2)cc1`, the IC50 in test [1] turned out to be 400 nM; in test [2], 25 nM; in test [3], 480 nM; in test [4] it was 450 nM.
As to `Fc1ccc(-c2cncc(CN3CCN(c4ccccc4F)CC3)c2)cc1`, the IC50 in test [1] was 20 nM; in test [2], 3 nM and 7 nM; in test [3], 8 nM; in test [4] it was 25 nM.
On to `c1cnc(N2CCN(Cc3cccc(-c4ccsc4)c3)CC2)nc1`, for which the IC50 in test [1] is 600 nM; in test [2], 3 nM and 6 nM; in test [3], 200 nM; in test [4], 300 nM.
In the case of `Fc1ccc(-c2cccc(CN3CCN(c4ncccn4)CC3)c2)cc1`, the IC50 in test [1] was 700 nM; in test [2], 2 nM and 7 nM; in test [3], 59 nM; in test [4] it was 49 nM.
Consider `Fc1ccc(-c2cncc(CN3CCN(c4ccccc4)CC3)c2)cc1`, for which the IC50 in test [1] is 70 nM; in test [2], 6 nM; in test [3], 33 nM; in test [4], 23 nM.
For `CC(C)Oc1cccnc1N(C)C1CCN(Cc2ccccc2)CC1`, the IC50 was above 1000 nM in test [1]; 5 nM and 8 nM in test [2]; 5500 nM in test [3]; 620 nM in test [4].
As for `Fc1cccc(-c2cccc(CN3CCN(c4ncccn4)CC3)c2)c1`, the IC50 is 300 nM in test [1]; 4 nM and 9 nM in test [2]; 200 nM in test [3]; 81 nM in test [4].
For the compound `c1cnc(N2CCN(Cc3cccc4c3oc3ccccc34)CC2)nc1`, the IC50 was above 100 nM in test [1] and 290 nM in test [2]. The inhibition in test [6] stood at 94%; in test [7], 91%.
`c1cnc(N2CCN(Cc3cccc4c3sc3ccccc34)CC2)nc1` came in with an IC50 in test [1] above 100 nM. In addition, the inhibition in test [5] amounted to 87%; in test [6] it was 97%; in test [7], 101%.
For the compound `c1cnc(N2CCN(Cc3cccc4c3Cc3ccccc3-4)CC2)nc1`, the IC50 was above 10000 nM in test [1], 20 nM in test [2], 5600 nM in test [3] and 9800 nM in test [4].
On to `Fc1ccccc1-c1cccc(CN2CCN(c3ncccn3)CC2)c1`, for which the IC50 in test [1] amounted to 900 nM; in test [2], 8 nM; in test [3], 320 nM; in test [4], 250 nM.
In the case of `COc1cccc(-c2cccc(CN3CCN(c4ncccn4)CC3)c2)c1`, the IC50 in test [1] amounted to 700 nM; in test [2] it was 17 nM; in test [3], 1100 nM; in test [4], 490 nM.
